Laboratory results published in patent US9732063B2, “Kinase inhibitors” (RESPIVERT LIMITED, priority 2012, dated 2017).
Like-named read-outs stand apart in the source and are kept apart here.

Tests used:
[1] = biological target: Syk (Homo sapiens (Human), UniProt P43405); assay: Syk enzyme inhibition (Z-LYTE FRET); type: biochemical
In short: (§1)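 2 hr RT enzyme + cpd (added solns 4/0.4/0.04/0.004 μg/mL); + FRET peptide (8 μM soln) + ATP soln (c-Src 800 μM, Syk 60 μM), 1 hr; protease development 1 hr; read donor/acceptor emission ratio.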

[2] = biological target: p38 MAPKα (Homo sapiens (Human), UniProt Q16539); assay: p38 MAPKα enzyme inhibition (Z-LYTE FRET, Method 2); type: biochemical
[3] = biological target: c-Src (Homo sapiens (Human), UniProt P12931); assay: c-Src enzyme inhibition (Z-LYTE FRET); type: biochemical
In short: as §1

[4] = test system: HT29 cells; assay: IL-1β-induced IL-8 release in HT29 cells; type: cell-based; conditions: Homo sapiens
Method: HT29 cells, a human colon adenocarcinoma cell line, are plated in a 96 well plate (24 hrs) and pre-treated with compounds at the desired concentration for 2 hours before addition of 5 ng/mL of IL-1β (Abcam) for 24 hours. Supernatants are harvested for IL-8 quantification by Sandwich ELISA (Duo-set, R&D System). The IC50 is determined from the dose response curve.

[5] = test system: PBMCs; assay: LPS-induced TNFα/IL-8 release in PBMC cells; type: cell-based; conditions: Homo sapiens, read-out: IC50 Values for Inhibition of Cytokine Release PBMCs IL-8
In short: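 TNFα and IL-8 in supernatants were measured by sandwich ELISA after 24 h of 1 ng/mL LPS (E. coli O111:B4) at 37 °C, 5% CO2. Test compounds were added 2 h before LPS to PBMCs from healthy subjects, separated on a density gradient.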

[6] = test system: d-U937 cells; assay: LPS-induced TNFα/IL-8 release in d-U937 cells; type: cell-based; conditions: Homo sapiens
Method: Cells are pre-incubated with final concentrations of test compound for 2 hr and are then stimulated with 0.1 μg/mL of LPS (from E. coli: O111:B4, Sigma) for 4 hr. The supernatant is collected for determination of TNFα and IL-8 concentrations by sandwich ELISA (Duo-set, R&D systems). […] The relative 50% effective concentration (REC50) is determined from the resultant concentration-response curve. The inhibition of IL-8 production is calculated at each concentration of test compound by comparison with vehicle control.

[7] = test system: PBMCs; assay: IL-2 and IFN gamma release in CD3/CD28 stimulated PBMC cells; type: cell-based; conditions: Homo sapiens
In short: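 They were cultured with compound for 3 days. IL-2 and IFN-γ in supernatants were quantified by sandwich ELISA, and IC50 was derived from the dose-response curve.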

[8] = biological target: GSK3α (Homo sapiens (Human), UniProt P49840); assay: GSK 3α enzyme inhibition (Z-LYTE FRET, Method 2); type: biochemical
In short: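 Z-LYTE FRET: GSK3α preincubated with compound 2 h at RT, then FRET peptide and ATP added (stocks 8 μM and 40 μM) for 1 h, followed by 1 h protease development. Compound stocks 4–0.004 μg/mL; phosphorylation from coumarin/fluorescein emission ratio.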

[9] = test system: TNBS-induced colitis; conditions: for LP inflammation / Ulcer grade: oral gavage BID, conducted over 2 days, mice; for inflammatory cell infiltrate in the reticular and laminar propria zone / ulcer grade and epithelial repair compared to the vehicle control: dosed orally at either 1 or 5 mg/kg
Method: On Day 0 of the study TNBS (200 μL) is administered intra-colonically via a plastic catheter followed by BID dosing of the vehicle, reference or test compound for 2 or 4 days. During the study animals are weighed every day and stool observations are made and recorded as a score, based on stool consistency. At the time of sacrifice on Day 2 (or Day 4) the large intestine is removed and the length and weight recorded. Sections of the colon are taken for either MPO analysis to determine neutrophil infiltration or for histopathology involving scoring to determine disease severity.

[10] = HT-29, read-out: IC50 Values for Inhibition of Cytokine Release HT29 cells IL-8
[11] = dU937, read-out: IC50 Values for Inhibition of Cytokine Release dU937 cells IL-8
[12] = dU937, read-out: IC50 Values for Inhibition of Cytokine Release dU937 cells TNFα
[13] = read-out: IC50 Values for Inhibition of Cytokine Release PBMCs IL-2
[14] = read-out: IC50 Values for Inhibition of Cytokine Release PBMCs IFNγ

Chain of c-Src (P12931 whole entry, looked up): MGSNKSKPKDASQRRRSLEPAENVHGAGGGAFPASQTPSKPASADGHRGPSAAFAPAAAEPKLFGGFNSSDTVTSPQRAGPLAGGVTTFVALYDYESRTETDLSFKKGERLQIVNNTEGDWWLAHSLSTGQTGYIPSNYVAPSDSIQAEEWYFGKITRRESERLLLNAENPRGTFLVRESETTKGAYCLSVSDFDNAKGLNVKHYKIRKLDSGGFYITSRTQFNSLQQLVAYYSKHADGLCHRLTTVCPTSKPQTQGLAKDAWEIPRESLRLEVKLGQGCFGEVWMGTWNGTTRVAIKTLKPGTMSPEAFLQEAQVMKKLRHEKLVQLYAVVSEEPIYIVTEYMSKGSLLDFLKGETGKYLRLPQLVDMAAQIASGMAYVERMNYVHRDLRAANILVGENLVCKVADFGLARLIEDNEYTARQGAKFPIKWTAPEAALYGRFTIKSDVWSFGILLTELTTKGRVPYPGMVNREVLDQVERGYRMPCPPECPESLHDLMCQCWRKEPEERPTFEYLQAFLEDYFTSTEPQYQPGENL
Chain of p38 MAPKα (Q16539 whole entry): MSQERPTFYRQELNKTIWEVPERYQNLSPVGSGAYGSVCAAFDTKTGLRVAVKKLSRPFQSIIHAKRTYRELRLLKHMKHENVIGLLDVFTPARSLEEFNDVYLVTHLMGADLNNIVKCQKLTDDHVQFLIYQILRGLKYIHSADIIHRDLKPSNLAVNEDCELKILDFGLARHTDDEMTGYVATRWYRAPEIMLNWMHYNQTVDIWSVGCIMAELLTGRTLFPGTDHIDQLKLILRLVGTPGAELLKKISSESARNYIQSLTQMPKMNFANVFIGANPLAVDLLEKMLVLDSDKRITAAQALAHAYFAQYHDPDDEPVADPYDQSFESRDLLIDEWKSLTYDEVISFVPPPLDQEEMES
Chain of GSK3α (P49840 whole entry): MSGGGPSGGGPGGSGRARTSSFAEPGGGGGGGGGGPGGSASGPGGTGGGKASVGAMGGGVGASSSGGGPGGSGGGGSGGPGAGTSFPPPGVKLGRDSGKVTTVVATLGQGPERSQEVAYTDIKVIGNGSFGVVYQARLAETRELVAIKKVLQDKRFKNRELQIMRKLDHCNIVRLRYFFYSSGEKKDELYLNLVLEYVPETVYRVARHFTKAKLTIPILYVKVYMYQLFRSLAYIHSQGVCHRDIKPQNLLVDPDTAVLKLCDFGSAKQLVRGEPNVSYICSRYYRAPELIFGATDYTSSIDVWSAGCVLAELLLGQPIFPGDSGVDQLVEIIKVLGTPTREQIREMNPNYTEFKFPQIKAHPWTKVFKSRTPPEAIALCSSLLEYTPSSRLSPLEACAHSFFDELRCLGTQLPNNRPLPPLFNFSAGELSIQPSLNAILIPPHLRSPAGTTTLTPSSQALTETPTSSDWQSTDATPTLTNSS

SMILES | IC50 [1] [µM] | IC50 [2] [µM] | IC50 [3] [µM] | IC50 [8] [µM] | IC50 [4, 10] [µM] | IC50 [5] [µM] | IC50 [6, 11] [µM] | IC50 [6, 12] [µM] | IC50 [7, 13] [µM] | IC50 [7, 14] [µM] | further results
C#Cc1cccc(Nc2nccc(Oc3ccc(NC(=O)Nc4cc(C(C)(C)C)nn4-c4ccc(OC)nc4)c4ccccc34)n2)c1 [Example 1, 1-(3-(tert-Butyl)-1-(6-methoxypyridin-3-yl)-1H-pyrazol-5-yl)-3-(4-((2-((3-ethynylphenyl)-amino)pyrimidin-4-yl)oxy)naphthalen-1-yl)urea] | 0.077 | 0.316 | 0.028 | > 10 | – | – | – | – | – | – | IC50 ([4]; HT-29, IL-1β-stimulated HT29 cells, read-out: IC50 Values for Inhibition of Cytokine Release HT29 cells IL-8): 0.0174 µM; IC50 ([5]; LPS-stimulated PBMCs): 0.0115 µM; IC50 ([6]; dU937, LPS-stimulated d-U937 cells, method describes REC50 relative to BIRB796, read-out: IC50 Values for Inhibition of Cytokine Release dU937 cells TNFα): 0.0036 µM; IC50 ([6]; dU937, LPS-stimulated d-U937 cells, read-out: IC50 Values for Inhibition of Cytokine Release dU937 cells IL-8): 0.0021 µM; IC50 ([7]; CD3/CD28 stimulated PBMCs, read-out: IC50 Values for Inhibition of Cytokine Release PBMCs IL-2): 0.0398 µM
COc1ccc(-n2nc(C(C)(C)C)cc2NC(=O)Nc2ccc(Oc3ccnc(Nc4cccc(N=S(C)(C)=O)c4)n3)c3ccccc23)cn1 [Example 2] | 0.015 | 0.081 | 0.008 | 1.85 | 0.0185 | 0.0053 | 0.0052 | 0.0165 | 0.0511 | – | –
COc1ccc(-n2nc(C(C)(C)C)cc2NC(=O)Nc2ccc(Oc3ccnc(Nc4cccc(OS(C)(=O)=O)c4)n3)c3ccccc23)cn1 [Example 3, 3-(4-((4-(3-(3-(tert-Butyl)-1-(6-methoxypyridin-3-yl)-1H-pyrazol-5-yl)ureido)naphthalen-1-yl)oxy)pyrimidin-2-yl)amino)phenyl methanesulfonate] | 0.066 | 0.028 | – | 2.54 | 0.0022 | 0.0015 | – | 0.0003 | 0.0099 | 0.0012 | –
COCCOCCOCCOc1cccc(Nc2nccc(Oc3ccc(NC(=O)Nc4cc(C(C)C)nn4-c4ccc(C)cc4)c4ccccc34)n2)c1 [Example 9, 1-(3-Isopropyl-1-(P-tolyl)-1H-pyrazol-5-yl)-3-(4-((2-((3-(2-(2-(2-methoxyethoxy)ethoxy)-ethoxy)phenyl)amino)pyrimidin-4-yl)oxy)naphthalen-1-yl)urea] | > 1 | 0.026 | 0.154 | 3.72 | 0.0045 | 0.0031 | 0.0028 | 0.0015 | – | – | –
Cc1ccc(-n2nc(C(C)C)cc2NC(=O)Nc2ccc(Oc3ccnc(Nc4cccc(OS(C)(=O)=O)c4)n3)c3ccccc23)cc1 [Example 11, 3-(4-((4-(3-(3-Isopropyl-1-(p-tolyl)-1H-pyrazol-5-yl)ureido)naphthalen-1-yl)oxy)pyrimidin-2-yl)amino)phenyl methanesulfonate] | > 0.622 | 0.05 | 0.02 | 8.65 | 0.0053 | 0.0036 | 0.0014 | 0.0009 | 0.151 | – | –
COc1cc(Nc2nccc(Oc3ccc(NC(=O)Nc4cc(C(C)C)nn4-c4ccc(C)cc4)c4ccccc34)n2)cc(OS(C)(=O)=O)c1 [Example 12, 3-((4-((4-(3-(3-Isopropyl-1-(p-tolyl)-1H-pyrazol-5-yl)ureido)naphthalen-1-yl)oxy)pyrimidin-2-yl)amino)-5-methoxyphenyl methanesulfonate] | 0.238 | 0.422 | 0.039 | – | 0.0043 | 0.0028 | – | 0.0004 | 0.0248 | 0.0047 | –
COc1cc(Nc2nccc(Oc3ccc(NC(=O)Nc4cc(C(C)C)nn4-c4ccc(C)cc4)c4ccccc34)n2)cc(S(=O)(=O)C2CC2)c1 [Example 18, 1-(4-((2-((3-(Cyclopropylsulfonyl)-5-methoxyphenyl)amino)pyrimidin-4-yl)oxy)naphthalen-1-yl)-3-(3-isopropyl-1-(p-tolyl)-1H-pyrazol-5-yl)urea] | 0.358 | 0.102 | 0.027 | 2.9 | 0.0062 | 0.0021 | – | – | 0.0846 | – | LP inflammation ([9]; 1 mg/kg): 2.8 ± 0.4; Ulcer grade ([9]; 1 mg/kg): 3.3 ± 0.4; LP inflammation ([9]; 5 mg/kg): 2.6 ± 0.3; Ulcer grade ([9]; 5 mg/kg): 3.0 ± 0.5; inflammatory cell infiltrate in the reticular and laminar propria zone [9]: marked reduction; ulcer grade and epithelial repair compared to the vehicle control [9]: marked improvements
COc1cc(Nc2nccc(Oc3ccc(NC(=O)Nc4cc(C(C)C)nn4-c4ccc(C)cc4)c4ccccc34)n2)cc(SCCO)c1 [Example 22] | 0.134 | 0.114 | 0.047 | – | 0.0051 | 0.0023 | – | – | 0.0307 | – | LP inflammation ([9]; 1 mg/kg): 2.6 ± 0.3; Ulcer grade ([9]; 1 mg/kg): 2.8 ± 0.4; LP inflammation ([9]; 5 mg/kg): 3.8 ± 0.3; Ulcer grade ([9]; 5 mg/kg): 3.7 ± 0.4; inflammatory cell infiltrate in the reticular and laminar propria zone [9]: marked reduction; ulcer grade and epithelial repair compared to the vehicle control [9]: marked improvements
COCCOCCOCCOc1cc(Nc2nccc(Oc3ccc(NC(=O)Nc4cc(C(C)(C)C)nn4-c4ccc(C)cc4)c4ccccc34)n2)cc(OC)c1 [Example 37, 1-(3-(tert-Butyl)-1-(p-tolyl)-1H-pyrazol-5-yl)-3-(4-((2-((3-methoxy-5-(2-(2-(2-methoxy-ethoxy)ethoxy)ethoxy)phenyl)amino)pyrimidin-4-yl)oxy)naphthalen-1-yl)urea] | 0.036 | 0.153 | 0.011 | 6.36 | 0.0017 | 0.0018 | 0.0017 | – | 0.0348 | 0.0015 | –
COCCOCCOCCOc1cc(Nc2nccc(Oc3ccc(NC(=O)Nc4cc(C(C)(C)C)nn4-c4ccc(OC)nc4)c4ccccc34)n2)cc(OC)c1 [Example 38, 1-(3-(tert-Butyl)-1-(6-methoxypyridin-3-yl)-1H-pyrazol-5-yl)-3-(4-((2-((3-methoxy-5-(2-(2-(2-methoxyethoxyl)ethoxy)ethoxy)phenyl)amino)pyrimidin-4-yl)oxy)naphthalen-1-yl)urea] | 0.025 | 0.132 | 0.01 | 5.45 | 0.0018 | 0.0015 | 0.001 | – | 0.0409 | 0.0013 | –
COCCOCCOCCOc1cc(Nc2nccc(Oc3ccc(NC(=O)Nc4cc(C(C)(C)C)nn4-c4ccc(N(C)C)cc4)c4ccccc34)n2)cc(OC)c1 [Example 63, 1-(3-(tert-Butyl)-1-(4-(dimethylamino)phenyl)-1H-pyrazol-5-yl)-3-(4-((2-((3-methoxy-5-(2-(2-(2-methoxyethoxy)ethoxy)ethoxy)phenyl)amino)pyrimidin-4-yl)oxy)naphthalen-1-yl)urea] | – | 0.187 | 0.013 | 4.82 | 0.002 | 0.002 | 0.0006 | 0.0004 | 0.0762 | 0.0015 | –
COCCOCCOCCOc1cc(Nc2nccc(Oc3ccc(NC(=O)Nc4cc(C(C)(C)C)nn4-c4ccc(C)cc4)c4ccccc34)n2)cc(OC)n1 [Example 69, 1-(3-(tert-Butyl)-1-(p-tolyl)-1H-pyrazol-5-yl)-3-(4-((2-((2-methoxy-6-(2-(2-(2-methoxyethoxy)ethoxy)ethoxy)pyridin-4-yl)amino)pyrimidin-4-yl)oxy)naphthalen-1-yl)urea] | 0.027 | 0.172 | 0.014 | > 10 | 0.0031 | 0.0016 | 0.0009 | 0.0012 | 0.0503 | 0.0014 | –
